The subject of one test is Rac1. As to the kind of experiment: GTPase activation assay: Rac1 effector pull-down with quantitative Western blotting. It counts as cell-based, mouse. To be noted: 200 nM BIM, 30 min before and throughout stimulation; MEFs prespread on 50K. The protocol: (§1) For immunofluorescence, 13-mm diameter glass coverslips, placed into 6-well plates, were derivatized for 30 minutes with 1 mM sulpho-m-maleimidobenzoyl-N-hydrosuccinimide ester (Perbio). For spreading on mab13 monoclonal antibody, coverslips were pre-coated with 10 μg/ml goat anti-Rat IgG FC fragment (Jackson, Stratech Scientific). For biochemical assays, 6-well tissue culture-treated plastic plates (Corning BV) were coated directly with ligand. Coverslips or dishes were coated for 2 hours at room temperature with 10 μg/ml 50K, H/0, PLL or mab13 in Dulbecco's PBS containing calcium and magnesium (Lonza), and blocked with 10 mg/ml heat-denatured BSA for 30 minutes at room temperature (Humphries et al., 1986). Equivalent ligand-coating between glass and plastic was tested by ELISA using the anti-fibronectin mAb 333 (Bass et al., 2007a). To prevent de novo synthesis of ECM and other syndecan-4 ligands, cells were treated with 25 μg/ml cycloheximide (Sigma) for 2 hours prior to detachment (Couchman et al., 1983) and were then detached with 0.5 mg/ml trypsin. […] Images were compiled and analyzed using ImageJ software. The total area of adhesion complexes per cell was calculated by recording the area of fluorescence intensity above an empirically determined threshold, following rolling ball background subtraction. […]
A general note: A western blot detects proteins with antibodies after separation by electrophoresis.

A further test has as its system MEFs. As to the kind of experiment: Adhesion complex (focal adhesion) formation assay, vinculin/actin immunofluorescence. It counts as cell-based, mouse. To be noted: 200 nM BIM; MEFs prespread on 50K. The protocol: as §1
Another test deals with T1, human β1 integrin (Homo sapiens, UniProt P05556).
T1 construct: endogenous in cells; host or cells: K562 human lymphocytes
Briefly: Flow cytometry of integrin activity with 12G10 antibody on K562 cells. To be noted: 1 mM Mn^2+ rather than 1 mM Ca^2+, 0.5 mM Mg^2+. It counts as cell-based. The protocol:
For analysis of integrin activity by flow cytometry, K562 suspension cells were stimulated with ultrasound for 20 minutes, followed by centrifugation and re-suspension in ice cold media. Cells were stained with primary antibody (12G10), diluted to 10 μg/ml in Dulbecco's PBS containing calcium and magnesium (Lonza), 0.02% (w/v) sodium azide on ice for 1 hour. The cells were washed with PBS, 1% (v/v) fetal bovine serum, followed by 10 μg/ml secondary antibody diluted in PBS, 10% (v/v) fetal bovine serum for 30 minutes. For manganese stimulation all antibodies and wash buffers were supplemented with 1 mM MnCl2. Cells were then fixed with 2% (w/v) paraformaldehyde, and analysed on a Dako Cyan flow cytometer, using an excitation wavelength of 488 nm. A 530/30 nm bandpass filter was used to detect the emissions.
(A flow cytometer gives signals particle by particle.)

Structures are written as SMILES.

Regarding `CN(C)CCCn1cc(C2=C(c3c[nH]c4ccccc34)C(=O)NC2=O)c2ccccc21` [BIM, bisindolylmaleimide I], in the test on Rac1, the “effect on ultrasound-induced Rac1 activation” value was “did not prevent ultrasound-induced Rac1 activation”. Besides, the “effect on focal adhesion formation in response to H/0” value in the test on MEFs is “blocked focal adhesion formation in response to H/0”.

In the case of `[Cl][Mn][Cl]` [Mn^2+, MnCl2], the “staining of K562 lymphocytes with 12G10 (β1 integrin activation epitope)” value at human β1 integrin was “enhanced”.

Values taken from US20090216158A1, “ULTRASOUND AND TISSUE REPAIR” (priority 2008, published 2009).
